Measured values taken from ChEMBL document CHEMBL4251615, “Discovery of anilino-furo[2,3-d]pyrimidine derivatives as dual inhibitors of EGFR/HER2 tyrosine kinase and their anticancer activity” (Eur J Med Chem, 2018).

Tested on: UO-31
Experiment: Growth inhibition of human UO31 cells assessed as cell growth at 10 uM incubated for 48 hrs by sulforhodamine B assay relative to control
Assay type: functional
Details: UO-31, 48 h, read-out: Activity

SMILES | growth at 10 µM [%]
Cc1oc2ncnc(Nc3ccc(OCc4cccc(F)c4)c(Cl)c3)c2c1C(=O)NCCO | 57.6
CCOC(=O)c1c(C)oc2ncnc(Nc3ccc(OCc4ccc(Cl)cc4)cc3)c12 | 99.5

Tested on: NCI-H460
Experiment: Growth inhibition of human NCI-H460 cells assessed as cell growth at 10 uM incubated for 48 hrs by sulforhodamine B assay relative to control
Assay type: functional
Details: NCI-H460, 48 h, read-out: Activity

SMILES | growth at 10 µM [%]
Cc1oc2ncnc(Nc3ccc(OCc4cccc(F)c4)c(Cl)c3)c2c1C(=O)NCCO | 34.7
CCOC(=O)c1c(C)oc2ncnc(Nc3ccc(OCc4ccc(Cl)cc4)cc3)c12 | 107

Tested on: HCT-15
Experiment: Growth inhibition of human HCT15 cells assessed as cell growth at 10 uM incubated for 48 hrs by sulforhodamine B assay relative to control
Assay type: functional
Details: HCT-15, 48 h, read-out: Activity

SMILES | growth at 10 µM [%]
Cc1oc2ncnc(Nc3ccc(OCc4cccc(F)c4)c(Cl)c3)c2c1C(=O)NCCO | 61.1
CCOC(=O)c1c(C)oc2ncnc(Nc3ccc(OCc4ccc(Cl)cc4)cc3)c12 | 108

Tested on: NCI-H226
Experiment: Growth inhibition of human NCI-H226 cells assessed as cell growth at 10 uM incubated for 48 hrs by sulforhodamine B assay relative to control
Assay type: functional
Details: NCI-H226, 48 h, read-out: Activity

SMILES | growth at 10 µM [%]
Cc1oc2ncnc(Nc3ccc(OCc4cccc(F)c4)c(Cl)c3)c2c1C(=O)NCCO | 40.8
CCOC(=O)c1c(C)oc2ncnc(Nc3ccc(OCc4ccc(Cl)cc4)cc3)c12 | 98.8

Tested on: CCRF-CEM
Experiment: Growth inhibition of human CCRF-CEM cells assessed as cell growth at 10 uM incubated for 48 hrs by sulforhodamine B assay relative to control
Assay type: functional
Details: read-out: Activity

SMILES | growth at 10 µM [%]
Cc1oc2ncnc(Nc3ccc(OCc4cccc(F)c4)c(Cl)c3)c2c1C(=O)NCCO | 89.5
CCOC(=O)c1c(C)oc2ncnc(Nc3ccc(OCc4ccc(Cl)cc4)cc3)c12 | 110

Tested on: CAKI-1
Experiment: Growth inhibition of human Caki1 cells assessed as cell growth at 10 uM incubated for 48 hrs by sulforhodamine B assay relative to control
Assay type: functional
Details: CAKI-1, 48 h, read-out: Activity

SMILES | growth at 10 µM [%]
Cc1oc2ncnc(Nc3ccc(OCc4cccc(F)c4)c(Cl)c3)c2c1C(=O)NCCO | 74.2
CCOC(=O)c1c(C)oc2ncnc(Nc3ccc(OCc4ccc(Cl)cc4)cc3)c12 | 94

Tested on: DU-145
Experiment: Growth inhibition of human DU145 cells assessed as cell growth at 10 uM incubated for 48 hrs by sulforhodamine B assay relative to control
Assay type: functional
Details: DU-145, 48 h, read-out: Activity

SMILES | growth at 10 µM [%]
Cc1oc2ncnc(Nc3ccc(OCc4cccc(F)c4)c(Cl)c3)c2c1C(=O)NCCO | 61.7
CCOC(=O)c1c(C)oc2ncnc(Nc3ccc(OCc4ccc(Cl)cc4)cc3)c12 | 106

Tested on: NCI/ADR-RES
Experiment: Growth inhibition of human NCI/ADR-RES cells assessed as cell growth at 10 uM incubated for 48 hrs by sulforhodamine B assay relative to control
Assay type: functional
Details: read-out: Activity

SMILES | growth at 10 µM [%]
Cc1oc2ncnc(Nc3ccc(OCc4cccc(F)c4)c(Cl)c3)c2c1C(=O)NCCO | 70.8
CCOC(=O)c1c(C)oc2ncnc(Nc3ccc(OCc4ccc(Cl)cc4)cc3)c12 | 101

Tested on: SK-MEL-5
Experiment: Growth inhibition of human SK-MEL-5 cells assessed as cell growth at 10 uM incubated for 48 hrs by sulforhodamine B assay relative to control
Assay type: functional
Details: SK-MEL-5, 48 h, read-out: Activity

SMILES | growth at 10 µM [%]
Cc1oc2ncnc(Nc3ccc(OCc4cccc(F)c4)c(Cl)c3)c2c1C(=O)NCCO | 73.1
CCOC(=O)c1c(C)oc2ncnc(Nc3ccc(OCc4ccc(Cl)cc4)cc3)c12 | 95.8

Tested on: SNB-75
Experiment: Growth inhibition of human SNB75 cells assessed as cell growth at 10 uM incubated for 48 hrs by sulforhodamine B assay relative to control
Assay type: functional
Details: SNB-75, 48 h, read-out: Activity

SMILES | growth at 10 µM [%]
Cc1oc2ncnc(Nc3ccc(OCc4cccc(F)c4)c(Cl)c3)c2c1C(=O)NCCO | 40.5
CCOC(=O)c1c(C)oc2ncnc(Nc3ccc(OCc4ccc(Cl)cc4)cc3)c12 | 116

Tested on: COLO 205
Experiment: Growth inhibition of human COLO205 cells assessed as cell growth at 10 uM incubated for 48 hrs by sulforhodamine B assay relative to control
Assay type: functional
Details: COLO 205, 48 h, read-out: Activity

SMILES | growth at 10 µM [%]
Cc1oc2ncnc(Nc3ccc(OCc4cccc(F)c4)c(Cl)c3)c2c1C(=O)NCCO | 85.7
CCOC(=O)c1c(C)oc2ncnc(Nc3ccc(OCc4ccc(Cl)cc4)cc3)c12 | 111

Tested on: A498
Experiment: Growth inhibition of human A498 cells assessed as cell growth at 10 uM incubated for 48 hrs by sulforhodamine B assay relative to control
Assay type: functional
Details: A498, 48 h, read-out: Activity

SMILES | growth at 10 µM [%]
Cc1oc2ncnc(Nc3ccc(OCc4cccc(F)c4)c(Cl)c3)c2c1C(=O)NCCO | 81.6
CCOC(=O)c1c(C)oc2ncnc(Nc3ccc(OCc4ccc(Cl)cc4)cc3)c12 | 91.7

Tested on: UACC-62
Experiment: Growth inhibition of human UACC62 cells assessed as cell growth at 10 uM incubated for 48 hrs by sulforhodamine B assay relative to control
Assay type: functional
Details: UACC-62, 48 h, read-out: Activity

SMILES | growth at 10 µM [%]
Cc1oc2ncnc(Nc3ccc(OCc4cccc(F)c4)c(Cl)c3)c2c1C(=O)NCCO | 55
CCOC(=O)c1c(C)oc2ncnc(Nc3ccc(OCc4ccc(Cl)cc4)cc3)c12 | 87.7

Tested on: SF-539
Experiment: Growth inhibition of human SF539 cells assessed as cell growth at 10 uM incubated for 48 hrs by sulforhodamine B assay relative to control
Assay type: functional
Details: SF-539, 48 h, read-out: Activity

SMILES | growth at 10 µM [%]
Cc1oc2ncnc(Nc3ccc(OCc4cccc(F)c4)c(Cl)c3)c2c1C(=O)NCCO | 47.4
CCOC(=O)c1c(C)oc2ncnc(Nc3ccc(OCc4ccc(Cl)cc4)cc3)c12 | 98.2

Tested on: KM12
Experiment: Growth inhibition of human KM12 cells assessed as cell growth at 10 uM incubated for 48 hrs by sulforhodamine B assay relative to control
Assay type: functional
Details: KM12, 48 h, read-out: Activity

SMILES | growth at 10 µM [%]
Cc1oc2ncnc(Nc3ccc(OCc4cccc(F)c4)c(Cl)c3)c2c1C(=O)NCCO | 68.9
CCOC(=O)c1c(C)oc2ncnc(Nc3ccc(OCc4ccc(Cl)cc4)cc3)c12 | 101

Tested on: OVCAR-8
Experiment: Growth inhibition of human OVCAR8 cells assessed as cell growth at 10 uM incubated for 48 hrs by sulforhodamine B assay relative to control
Assay type: functional
Details: OVCAR-8, 48 h, read-out: Activity

SMILES | growth at 10 µM [%]
Cc1oc2ncnc(Nc3ccc(OCc4cccc(F)c4)c(Cl)c3)c2c1C(=O)NCCO | 42.8
CCOC(=O)c1c(C)oc2ncnc(Nc3ccc(OCc4ccc(Cl)cc4)cc3)c12 | 107

Tested on: OVCAR-5
Experiment: Growth inhibition of human OVCAR5 cells assessed as cell growth at 10 uM incubated for 48 hrs by sulforhodamine B assay relative to control
Assay type: functional
Details: OVCAR-5, 48 h, read-out: Activity

SMILES | growth at 10 µM [%]
Cc1oc2ncnc(Nc3ccc(OCc4cccc(F)c4)c(Cl)c3)c2c1C(=O)NCCO | 96.9
CCOC(=O)c1c(C)oc2ncnc(Nc3ccc(OCc4ccc(Cl)cc4)cc3)c12 | 100

Tested on: SK-MEL-28
Experiment: Growth inhibition of human SK-MEL-28 cells assessed as cell growth at 10 uM incubated for 48 hrs by sulforhodamine B assay relative to control
Assay type: functional
Details: SK-MEL-28, 48 h, read-out: Activity

SMILES | growth at 10 µM [%]
Cc1oc2ncnc(Nc3ccc(OCc4cccc(F)c4)c(Cl)c3)c2c1C(=O)NCCO | 50.6
CCOC(=O)c1c(C)oc2ncnc(Nc3ccc(OCc4ccc(Cl)cc4)cc3)c12 | 101

Biological target: Receptor tyrosine-protein kinase erbB-2 (Homo sapiens) (UniProt P04626)
Sequence (P04626 whole entry, the tested form may be a part): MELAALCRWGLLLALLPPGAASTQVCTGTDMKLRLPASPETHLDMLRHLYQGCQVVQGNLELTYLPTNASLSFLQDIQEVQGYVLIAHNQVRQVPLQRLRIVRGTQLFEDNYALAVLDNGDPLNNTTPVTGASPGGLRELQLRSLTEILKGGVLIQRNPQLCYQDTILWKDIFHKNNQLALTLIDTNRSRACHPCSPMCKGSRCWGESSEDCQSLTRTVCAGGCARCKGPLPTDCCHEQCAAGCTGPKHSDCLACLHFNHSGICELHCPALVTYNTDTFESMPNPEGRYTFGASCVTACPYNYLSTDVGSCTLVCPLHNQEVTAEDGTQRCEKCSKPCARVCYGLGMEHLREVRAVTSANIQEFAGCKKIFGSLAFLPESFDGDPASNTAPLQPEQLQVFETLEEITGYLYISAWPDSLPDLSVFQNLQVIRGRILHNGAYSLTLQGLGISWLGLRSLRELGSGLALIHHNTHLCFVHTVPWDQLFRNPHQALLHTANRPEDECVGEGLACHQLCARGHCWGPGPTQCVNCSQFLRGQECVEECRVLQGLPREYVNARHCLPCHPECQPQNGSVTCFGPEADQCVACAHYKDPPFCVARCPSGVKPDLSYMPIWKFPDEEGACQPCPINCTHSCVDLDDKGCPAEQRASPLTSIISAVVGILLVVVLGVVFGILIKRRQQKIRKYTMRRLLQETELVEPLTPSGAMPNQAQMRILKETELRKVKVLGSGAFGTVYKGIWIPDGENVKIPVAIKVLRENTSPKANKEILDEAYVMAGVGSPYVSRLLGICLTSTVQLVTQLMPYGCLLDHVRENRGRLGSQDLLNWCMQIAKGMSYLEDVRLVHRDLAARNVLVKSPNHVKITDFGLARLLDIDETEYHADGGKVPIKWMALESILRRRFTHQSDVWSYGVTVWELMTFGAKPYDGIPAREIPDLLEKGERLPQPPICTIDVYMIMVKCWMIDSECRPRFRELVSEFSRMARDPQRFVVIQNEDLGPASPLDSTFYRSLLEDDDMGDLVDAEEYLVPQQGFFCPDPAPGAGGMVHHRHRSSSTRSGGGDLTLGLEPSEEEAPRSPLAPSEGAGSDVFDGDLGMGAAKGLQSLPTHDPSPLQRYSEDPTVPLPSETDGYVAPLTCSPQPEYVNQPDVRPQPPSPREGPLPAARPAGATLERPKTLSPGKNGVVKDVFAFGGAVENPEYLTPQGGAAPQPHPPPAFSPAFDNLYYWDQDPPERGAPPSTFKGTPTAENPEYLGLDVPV
Experiment: Inhibition of recombinant human N-terminal GST-tagged HER2 (679 to 1255 residues) expressed in baculovirus infected Sf9 cells at 10 uM using poly[Glu:Tyr] (4:1) as substrate after 40 mins by Kinase-Glo plus luminescence assay relative to control
Details: not given

SMILES | inhibition [%]
Cc1oc2ncnc(Nc3ccc(OCc4cccc(F)c4)c(Cl)c3)c2c1C(=O)NCCO | 6
CCOC(=O)c1c(C)oc2ncnc(Nc3ccc(OCc4ccc(Cl)cc4)cc3)c12 | 18

Tested on: K562
Experiment: Growth inhibition of human K562 cells assessed as cell growth at 10 uM incubated for 48 hrs by sulforhodamine B assay relative to control
Assay type: functional
Details: K562, 48 h, read-out: Activity

SMILES | growth at 10 µM [%]
Cc1oc2ncnc(Nc3ccc(OCc4cccc(F)c4)c(Cl)c3)c2c1C(=O)NCCO | 33.2
CCOC(=O)c1c(C)oc2ncnc(Nc3ccc(OCc4ccc(Cl)cc4)cc3)c12 | 83.8

Tested on: SR
Experiment: Growth inhibition of human SR cells assessed as cell growth at 10 uM incubated for 48 hrs by sulforhodamine B assay relative to control
Assay type: functional
Details: read-out: Activity

SMILES | growth at 10 µM [%]
Cc1oc2ncnc(Nc3ccc(OCc4cccc(F)c4)c(Cl)c3)c2c1C(=O)NCCO | 99.7
CCOC(=O)c1c(C)oc2ncnc(Nc3ccc(OCc4ccc(Cl)cc4)cc3)c12 | 92.1

Tested on: HOP-62
Experiment: Growth inhibition of human HOP62 cells assessed as cell growth at 10 uM incubated for 48 hrs by sulforhodamine B assay relative to control
Assay type: functional
Details: HOP-62, 48 h, read-out: Activity

SMILES | growth at 10 µM [%]
Cc1oc2ncnc(Nc3ccc(OCc4cccc(F)c4)c(Cl)c3)c2c1C(=O)NCCO | 51.1
CCOC(=O)c1c(C)oc2ncnc(Nc3ccc(OCc4ccc(Cl)cc4)cc3)c12 | 97.7

Tested on: T47D
Experiment: Growth inhibition of human T47D cells assessed as cell growth at 10 uM incubated for 48 hrs by sulforhodamine B assay relative to control
Assay type: functional
Details: read-out: Activity

SMILES | growth at 10 µM [%]
Cc1oc2ncnc(Nc3ccc(OCc4cccc(F)c4)c(Cl)c3)c2c1C(=O)NCCO | 34.7
CCOC(=O)c1c(C)oc2ncnc(Nc3ccc(OCc4ccc(Cl)cc4)cc3)c12 | 84

Tested on: LOX IMVI
Experiment: Growth inhibition of human LOXIMVI cells assessed as cell growth at 10 uM incubated for 48 hrs by sulforhodamine B assay relative to control
Assay type: functional
Details: read-out: Activity

SMILES | growth at 10 µM [%]
Cc1oc2ncnc(Nc3ccc(OCc4cccc(F)c4)c(Cl)c3)c2c1C(=O)NCCO | 61.5
CCOC(=O)c1c(C)oc2ncnc(Nc3ccc(OCc4ccc(Cl)cc4)cc3)c12 | 95.8

Tested on: SK-OV-3
Experiment: Growth inhibition of human SKOV3 cells assessed as cell growth at 10 uM incubated for 48 hrs by sulforhodamine B assay relative to control
Assay type: functional
Details: SK-OV-3, 48 h, read-out: Activity

SMILES | growth at 10 µM [%]
Cc1oc2ncnc(Nc3ccc(OCc4cccc(F)c4)c(Cl)c3)c2c1C(=O)NCCO | 74.2
CCOC(=O)c1c(C)oc2ncnc(Nc3ccc(OCc4ccc(Cl)cc4)cc3)c12 | 88

Biological target: Epidermal growth factor receptor (Homo sapiens, UniProt P00533)
Sequence (P00533 whole entry, the tested form may be a part): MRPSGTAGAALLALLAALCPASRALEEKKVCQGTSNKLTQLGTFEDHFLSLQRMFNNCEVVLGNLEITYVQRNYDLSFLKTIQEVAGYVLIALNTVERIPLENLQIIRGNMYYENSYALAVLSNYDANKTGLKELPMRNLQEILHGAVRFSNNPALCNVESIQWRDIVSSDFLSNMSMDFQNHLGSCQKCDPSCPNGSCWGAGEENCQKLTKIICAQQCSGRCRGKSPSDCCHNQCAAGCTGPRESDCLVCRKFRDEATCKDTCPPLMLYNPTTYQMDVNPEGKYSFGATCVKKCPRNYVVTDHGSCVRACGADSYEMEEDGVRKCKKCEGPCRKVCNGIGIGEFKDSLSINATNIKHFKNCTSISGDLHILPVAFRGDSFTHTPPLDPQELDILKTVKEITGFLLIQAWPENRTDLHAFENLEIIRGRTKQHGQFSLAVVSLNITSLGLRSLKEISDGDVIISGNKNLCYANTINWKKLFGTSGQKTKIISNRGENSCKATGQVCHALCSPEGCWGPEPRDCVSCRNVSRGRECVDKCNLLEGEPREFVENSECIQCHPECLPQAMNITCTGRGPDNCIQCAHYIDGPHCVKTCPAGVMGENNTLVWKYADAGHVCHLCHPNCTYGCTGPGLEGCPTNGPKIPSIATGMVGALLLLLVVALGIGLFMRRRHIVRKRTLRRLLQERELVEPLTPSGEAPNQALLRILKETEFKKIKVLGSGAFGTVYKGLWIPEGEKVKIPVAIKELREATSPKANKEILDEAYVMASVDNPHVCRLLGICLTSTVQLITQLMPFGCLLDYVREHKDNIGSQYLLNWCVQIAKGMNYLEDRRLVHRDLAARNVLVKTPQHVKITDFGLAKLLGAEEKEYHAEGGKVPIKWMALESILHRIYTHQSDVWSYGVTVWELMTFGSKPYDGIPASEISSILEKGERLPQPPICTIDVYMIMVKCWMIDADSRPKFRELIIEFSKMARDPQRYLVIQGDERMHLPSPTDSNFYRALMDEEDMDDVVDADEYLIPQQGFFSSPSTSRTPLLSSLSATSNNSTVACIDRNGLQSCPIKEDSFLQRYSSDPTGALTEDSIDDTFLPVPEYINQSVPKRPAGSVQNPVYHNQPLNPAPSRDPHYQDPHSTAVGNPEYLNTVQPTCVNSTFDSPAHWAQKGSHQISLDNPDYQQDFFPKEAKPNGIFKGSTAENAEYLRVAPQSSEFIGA
Experiment: Inhibition of recombinant human C-terminal His/N-terminal GST-tagged EGFR (668 to 1210 residues) expressed in baculovirus infected Sf9 cells at 10 uM using biotin-labeled poly[Glu:Tyr] (4:1) as substrate after 30 mins by Kinase-Glo plus luminescence assay relative to control
Details: not given

SMILES | inhibition [%]
Cc1oc2ncnc(Nc3ccc(OCc4cccc(F)c4)c(Cl)c3)c2c1C(=O)NCCO | 32
CCOC(=O)c1c(C)oc2ncnc(Nc3ccc(OCc4ccc(Cl)cc4)cc3)c12 | 6

Tested on: M14
Experiment: Growth inhibition of human M14 cells assessed as cell growth at 10 uM incubated for 48 hrs by sulforhodamine B assay relative to control
Assay type: functional
Details: M14, 48 h, read-out: Activity

SMILES | growth at 10 µM [%]
Cc1oc2ncnc(Nc3ccc(OCc4cccc(F)c4)c(Cl)c3)c2c1C(=O)NCCO | 66.9
CCOC(=O)c1c(C)oc2ncnc(Nc3ccc(OCc4ccc(Cl)cc4)cc3)c12 | 102
